Test results as given in patent US20240360194A1, “New Peptides as Potent and Selective GIP Receptor Agonists” (Sanofi, priority 2021, published 2024).
Read-outs that look alike come from different tables or passages of the source. Blank lines part the entries; values can stand above or below the compound they belong to.

Assays:
[1] = system: C57Bl/6 mice; assay: Acute effects after s.c. treatment on blood glucose in an intraperitoneal glucose tolerance test (ipGTT); assay type: in vivo, male C57Bl/6NCrl mice; settings: for Blood glucose concentration AUC / Incremental blood glucose concentration AUCi: Example 13 study, mean ± SEM; for Blood glucose concentration AUC: vehicle 23.20; for Incremental blood glucose concentration AUCi: baseline corrected, vehicle 5.50
From the text: Acute Effects after Subcutaneous (s.c.) Treatment on Blood Glucose in an Intraperitoneal (i.p.) Glucose Tolerance Test (ipGTT) in Healthy, Male C57Bl/6 Mice
Healthy, normoglycemic male C57Bl/6NCrl mice were ordered in an age of 9-10 weeks with an approximate body weight (BW) of 24-26 g at Charles River Laboratories Deutschland GmbH, 97633 Sulzfeld, Germany. Mice were shipped grouped housed (N=4 per cage), acclimatized for one week and remained grouped housed throughout the entire study. Mice were housed under vivarium conditions that included a 12 h light/dark cycle (light phase 06:00 AM-06:00 PM), mean room temperature of 22±2° C. and a relative mean humidity of 55±10%. All animals had free access to food (Ssniff R/M-H diet) and water prior to study start. At study start mice were between 10-11 weeks old.
The primary objective of the study was to investigate the compound-induced lowering of the blood glucose excursion and improvement of glucose tolerance in a mouse ipGTT setting and therefore the primary parameters included blood glucose, delta blood glucose (normalized to the time point just prior to the i.p. glucose challenge, t=0 h) and their respective calculated area under curve (AUC) values. The study was performed as an acute, single dosing study with 6 groups and the male animals were randomly divided to groups of 7-8 mice per group. Dose-dependent pharmacodynamic blood glucose lowering efficacy of the GIPR agonist was analyzed with s.c. injections 6 h before the i.p. glucose load in the dose range from 3 up to 100 nmol/kg and compared to the vehicle group as well as the semaglutide positive control at a dose of 10 nmol/kg.
In more detail, mice were fed overnight and on the following morning brought to the lab with food removed but ad libitum access to water. Blood samplings (5 μl) were performed at: −6.5, −0.5, 0, 0.17, 0.5, 1, 1.5, 2 and 3 h before and after the glucose bolus of 1 g glucose per kg BW i.p. given at time point t=0 h. On time point t=0.17 h an additional K-EDTA plasma sample from 60-80 μl blood was taken for plasma insulin analysis. Blood was withdrawn from the tip of the tail. The GIPR agonist and semaglutide were dissolved in 10 mM phosphate buffer pH 7.4 with 2.3% glycerol and 0.01% polysorbat 20 (vehicle) and s.c. treatment was performed −6 h before the glucose load (t=0 h) using an injection volume of 5 ml/kg. The injection solutions were freshly prepared prior to the experiment using sterile filtered vehicle solution. Blood glucose was determined enzymatically (Gluco-quant® Glucose/HK kit on Roche/Hitachi 912). Plasma insulin was determined using a mouse/rat insulin sandwich immunoassay kit from Meso Scale Discovery.
All data were collected using Microsoft Excel. None of the data were collected online. The results are expressed as means±standard error of the mean (SEM). As primary study parameters, blood glucose, baseline (time point t=0 h) subtracted delta blood glucose and their respective calculated area under curve (AUC) values were determined.
The statistical analysis of the ipGTT blood glucose excursion data response following subcutaneous compound or vehicle treatment was performed on the calculated AUC values of blood glucose raw data as well as the calculated AUC values for baseline subtracted delta blood glucose data. In a first step the Levene's test was used to test for equality of variances between groups. […] Where Levene's test was not significant (p>0.05) ANOVA was conducted without prior rank transformation. In a second step a One-way ANOVA analysis for factor treatment followed by Dunnett's multiple comparisons test vs. vehicle group was used to test for statistical differences. All analyses were performed using SAS (version 9.4) under Linux via the interface software EverSt@t V6.1.
Male C57Bl/6NCrl mice were fed overnight and on the following morning brought to the lab with food removed but adlibitum access to water. […]

[2] = Pharmacokinetic evaluation in mice; assay type: in vivo, female C57Bl/6 mice
Description: Compounds were administered in a suitable buffer system, e.g. PBS buffer solution at pH7.4 or DPBS solution at concentrations of 0.05, 0.1, 0.5 or 1 mg/ml depending on dose, species and administration volume. Female C57Bl/6 mice were dosed 0.25 mg/kg, 0.5 mg/kg or 1 mg/kg intravenously (i.v.) or subcutaneously (s.c.). The mice were sacrificed, and blood samples were collected after 0.08, 0.25, 0.5, 1, 2, 4, 8, 24, 32, and 48 h post i.v. application and 0.25, 0.5, 1, 2, 4, 8, 24, 32, and 48 h post s.c. application, respectively. Plasma samples were analysed after protein precipitation via liquid chromatography mass spectrometry (LC/MS). PK parameters and half-life were calculated using Phoenix-WinNonlin 8.1 using a non-compartmental model and linear trapezoidal interpolation calculation. Pharmacokinetic profiles were determined as described in Methods.

[3] = female, C57Bl/6, mouse, in vivo, iv, 0.25 mg/kg
[4] = female, C57Bl/6, mouse, in vivo, sc, 0.5 mg/kg

AUC(0-t) ([2]; female, C57Bl/6, mouse, plasma, iv, mice, 0.25 mg/kg i.v., read-out: AUClast): 20800 ng·h/mL
clearance ([2]; female, C57Bl/6, mouse, plasma, iv, mice, 0.25 mg/kg i.v., read-out: Cl (converted)): 0.198 mL/min/kg
Cmax ([2]; female, C57Bl/6, mouse, plasma, iv, mice, 0.25 mg/kg i.v., read-out: Cmax): 3470 ng/mL
half-life ([2]; female, C57Bl/6, mouse, plasma, iv, mice, 0.25 mg/kg i.v., read-out: T1/2 (converted)): 7.9 h
AUC(0-t) ([2]; female, C57Bl/6, mouse, plasma, sc, mice, 0.5 mg/kg s.c., read-out: AUClast): 37500 ng·h/mL
Cmax ([2]; female, C57Bl/6, mouse, plasma, sc, mice, 0.5 mg/kg s.c., read-out: Cmax): 2390 ng/mL
bioavailability ([2]; female, C57Bl/6, mouse, plasma, sc, mice, 0.5 mg/kg s.c., read-out: F): 91%
half-life ([2]; female, C57Bl/6, mouse, plasma, sc, mice, 0.5 mg/kg s.c., read-out: T1/2 (converted)): 8.21 h
Compound: CC[C@H](C)[C@H](NC(=O)[C@H](CCCNC(=N)N)NC(=O)[C@H](CC(=O)O)NC(=O)[C@H](CCCCNC(=O)COCCOCCNC(=O)COCCOCCNC(=O)CC[C@H](NC(=O)CCCCCCCCCCCCCCCCC(=O)O)C(=O)O)NC(=O)C(C)(C)NC(=O)[C@@H](NC(=O)[C@H](CO)NC(=O)[C@H](CC(C)C)NC(=O)[C@H](CC(=O)O)NC(=O)[C@H](CO)NC(=O)[C@@H](NC(=O)[C@H](Cc1ccccc1)NC(=O)[C@@H](NC(=O)CNC(=O)[C@H](CCC(=O)O)NC(=O)C(C)(C)NC(=O)[C@@H](N)Cc1ccc(O)cc1)[C@@H](C)O)[C@@H](C)CC)[C@@H](C)CC)C(=O)N[C@@H](Cc1c[nH]cn1)C(=O)N[C@@H](CCC(N)=O)C(=O)NC(C)(C)C(=O)N[C@@H](CCC(=O)O)C(=O)N[C@@H](Cc1ccccc1)C(=O)N[C@H](C(=O)N[C@@H](CCC(=O)O)C(=O)N[C@@H](Cc1c[nH]c2ccccc12)C(=O)N[C@@H](CC(C)C)C(=O)N[C@@H](CC(C)C)C(=O)N[C@@H](C)C(=O)N[C@@H](CCC(N)=O)C(=O)N[C@@H](CCCNC(=N)N)C(=O)NCC(N)=O)[C@@H](C)CC [SEQ ID NO: 6, H2N-Y-Aib-E-G-T-F-I-S-D-L-S-I-Aib-K[{AEEA}2-gGlu-C18OH]-D-R-I-H-Q-Aib-E-F-I-E-W-L-L-A-Q-R-G-NH2]
Blood glucose concentration AUC ([1]; 3 nmol/kg s.c. 6 h before i.p. glucose): +21.51 ± 0.580 mmol/L* 0-2 h
Incremental blood glucose concentration AUCi ([1]; 3 nmol/kg s.c.): +3.85 ± 0.438 mmol/L* 0-2 h
Blood glucose concentration AUC ([1]; 10 nmol/kg s.c. 6 h before i.p. glucose): +19.37 ± 0.309 mmol/L* 0-2 h
Incremental blood glucose concentration AUCi ([1]; 10 nmol/kg s.c.): +3.84 ± 0.240 mmol/L* 0-2 h
Blood glucose concentration AUC ([1]; 30 nmol/kg s.c. 6 h before i.p. glucose): +17.22 ± 0.453 mmol/L* 0-2 h
Incremental blood glucose concentration AUCi ([1]; 30 nmol/kg s.c.): +2.87 ± 0.382 mmol/L* 0-2 h
Blood glucose concentration AUC ([1]; 100 nmol/kg s.c. 6 h before i.p. glucose): +15.35 ± 0.308 mmol/L* 0-2 h
Incremental blood glucose concentration AUCi ([1]; 100 nmol/kg s.c.): +1.21 ± 0.361 mmol/L* 0-2 h
minimal effective dose for improvement of i.p. glucose tolerance ([1]; single s.c. dose, C57Bl/6NCrl mice, vs. vehicle): 10 to 30 nmol/kg

AUC(0-t) [2, 3]: 27300 ng·h/mL
Cmax [2, 3]: 5040 ng/mL
clearance [2, 3]: 0.151 mL/min/kg
half-life [2, 3]: 7.33 h
AUC(0-t) [2, 4]: 82500 ng·h/mL
Cmax [2, 4]: 4590 ng/mL
half-life [2, 4]: 5.69 h
F ([2]; mouse, in vivo, sc, 0.5 mg/kg): 150%
Compound: CC[C@H](C)[C@H](NC(=O)[C@H](CCCNC(=N)N)NC(=O)[C@H](CC(=O)O)NC(=O)[C@H](CCCCNC(=O)COCCOCCNC(=O)COCCOCCNC(=O)CC[C@H](NC(=O)CCCCCCCCCCCCCCCCC(=O)O)C(=O)O)NC(=O)C(C)(C)NC(=O)[C@@H](NC(=O)[C@H](CO)NC(=O)[C@H](CC(C)C)NC(=O)[C@H](CC(=O)O)NC(=O)[C@H](CO)NC(=O)[C@@H](NC(=O)[C@@](C)(CC)NC(=O)[C@@H](NC(=O)CNC(=O)[C@H](CCC(=O)O)NC(=O)C(C)(C)NC(=O)[C@@H](N)Cc1ccc(O)cc1)[C@@H](C)O)[C@@H](C)CC)[C@@H](C)CC)C(=O)N[C@@H](Cc1c[nH]cn1)C(=O)N[C@@H](CCC(N)=O)C(=O)NC(C)(C)C(=O)N[C@@H](CCC(=O)O)C(=O)N[C@@H](Cc1ccccc1)C(=O)N[C@H](C(=O)N[C@@H](CCC(=O)O)C(=O)N[C@@H](Cc1c[nH]c2ccccc12)C(=O)N[C@@H](CC(C)C)C(=O)N[C@@H](CC(C)C)C(=O)N[C@@H](C)C(=O)N[C@@H](CCC(N)=O)C(=O)N[C@@H](CCCNC(=N)N)C(=O)NCC(N)=O)[C@@H](C)CC [SEQ ID NO: 16, H2N-Y-Aib-E-G-T-Iva-I-S-D-L-S-I-Aib-K[{AEEA}2-gGlu-C18OH]-D-R-I-H-Q-Aib-E-F-I-E-W-L-L-A-Q-R-G-NH2]
